From patent US7212853B1 (priority 1996, dated 2007) come the findings set out here.

This data set can be described thus: Transdermal electrotransport delivery of goserelin at current densities of 50 and 100 μA/cm^2 (Example 3). The class given is in vivo, human. Particulars: for average transdermal goserelin flux: 8 hours, 12 volunteers. The method, then:
This study was undertaken to evaluate the relationship between current density and drug flux in the transdermal electrotransport delivery of goserelin. The study involved the application of electrotransport devices, applying constant current, to 12 normal male volunteers for a duration of 8 hours.
The two electrotransport treatment regimens in this study differed only in applied current density levels. The electrotransport devices delivered goserelin through the skin from polyvinyl alcohol (PVOH)-based donor hydrogels having a skin-contact surface area of 4 cm^2. The gels contained an aqueous goserelin solution. The current density levels used in this study were 50 and 100 μA/cm^2. After an 8 hour treatment period, the electrotransport devices were removed. The skin site was then washed to remove any residual goserelin. All 12 volunteers received each treatment seven days apart.
For each treatment, seven blood samples were taken over a 24 hour period commencing with the application of current from the electrotransport devices. Serum goserelin concentrations from each patient were used to calculate mean drug flux and the mean total amount of drug delivered.

On to `CC(C)C[C@H](NC(=O)[C@@H](COC(C)(C)C)NC(=O)[C@H](Cc1ccc(O)cc1)NC(=O)[C@H](CO)NC(=O)[C@H](Cc1c[nH]c2ccccc12)NC(=O)[C@H](Cc1cnc[nH]1)NC(=O)[C@@H]1CCC(=O)N1)C(=O)N[C@@H](CCCNC(=N)N)C(=O)N1CCC[C@H]1C(=O)NNC(N)=O` [goserelin], for which the “average transdermal goserelin flux” value is, setting by setting: (50 μA/cm^2, constant current) 5.8 µg/h; (100 μA/cm^2, constant current) 21.6 µg/h. For the same compound, under “current density rises from 50 to 100 μA/cm^2”, the “increase in drug flux” value was “four”.
